As usually defined, the GI50 is the concentration giving 50% growth inhibition. High values mean lower sensitivity of the cells, low ones greater sensitivity of the cells. In general, CC50 refers to the concentration at which the toxic effect on the cells reaches its halfway point. A higher CC50 goes with lower toxicity to the cells.

We go through 5 compounds from US20090233976A1, “Antimitotic Rhizoxin Deritivatives of Burkholderia Rhizoxina, Method for Producing Said Derivatives and Use Thereof” (priority 2005, published 2009).

One data set relates to human cancer cell lines. The conditions noted are these: a number of human cancer cell lines, particularly vincristin-resistent cells; cited from earlier work.
Data set [1] concerns K-562 human leukemia cells. The data set is described as follows: antiproliferative test on K-562 human leukemia cells. Format: cell-based. The following applies: K562. The text has this:
(§1) The inventive substances 1-4 show very strong antiproliferative and cytotoxic effects (e.g. for L-929 mouse fibroblast, K-562 human leukemia cells and HeLa human cervix carcinoma line) and an antifungal activity (e.g. against Glomerella cingulata, Penicillium notatum, Fusarium culmorum, Hamigera avellanea, Aspergillus fumigatus). (See Table 1.)
(§2) The examination of the antiproliferative and cytotoxic properties of the substances 1-4 has been performed via the method described in the literature (H. M. Dahse, B. Schlegel, U. Gräfe, Pharmazie 2001, 56, 489-491). The antifungal activity has been determined via the agar diffusion test. (See Table 2.)

Data set [2] can be described thus: cytotoxicity test on HeLa human cervix carcinoma line. The data set is classed as cell-based. The following applies: HeLa human cervix carcinoma cells, cytotoxic.
Description: as §1, §2

Another data set concerns L-929 mouse fibroblast. In words: antiproliferative test on L-929 mouse fibroblasts. Format: cell-based. The following applies: L929.
Description: as §1, §2

≈ marks a conversion by molar mass, not a printed value. Some results are limits rather than exact numbers.

In the case of `CO[C@@H](/C(C)=C/C=C/C(C)=C/c1coc(C)n1)[C@@H](C)[C@@H]1C[C@H](O)[C@@]2(C)O[C@@H]2/C=C/[C@@H](C)[C@H]2C[C@H](CC(=O)O2)C[C@@H]2O[C@H]2C(=O)O1` [Rhizoxin], the “activity against human cancer cell lines” value with human cancer cell lines is reported as “high activity”.

Consider `CC(/C=C/C=C(\C)[C@H](O)[C@@H](C)C1C[C@H](O)C2(C)O[C@@H]2/C=C/[C@@H](C)[C@H](O)C[C@H](CC(=O)O)C/C=C/C(=O)O1)=C\c1coc(C)n1` (some centres unmarked) [Substance 1], for which the GI50 in data set [1] came out at 15 ng/mL (≈ 24.4 nM). For the same compound, the CC50 in data set [2] was found to be 90 ng/mL (≈ 147 nM).

`COC(=O)C[C@@H]1C/C=C/C(=O)OC([C@H](C)[C@@H](O)/C(C)=C/C=C/C(C)=C/c2coc(C)n2)C[C@H](O)C2(C)O[C@@H]2/C=C/[C@@H](C)[C@H](O)C1` (some centres unmarked) [Substance 2]: the GI50 was found to be 0.03 ng/mL (≈ 0.0478 nM) in data set [1] and 0.05 µg/mL (≈ 79.6 nM) with L-929 mouse fibroblast. This compound also returned a CC50 in data set [2] of 0.28 ng/mL (≈ 0.446 nM).

As for `COC(=O)C[C@@H]1C/C=C/C(=O)OC([C@H](C)[C@@H](OC)/C(C)=C/C=C/C(C)=C/c2coc(C)n2)C[C@H](O)C2(C)O[C@@H]2/C=C/[C@@H](C)[C@H](O)C1` (some centres unmarked) [Substance 3], the GI50 in data set [1] was less than 0.03 ng/mL; in the data set with L-929 mouse fibroblast, 0.05 µg/mL (≈ 77.9 nM). The CC50 in data set [2] was less than 0.03 ng/mL.

Regarding `COC(=O)C[C@@H]1C/C=C/C(=O)OC([C@H](C)[C@@H](OC)/C(C)=C/C=C/C(C)=C\c2coc(C)n2)C[C@H](O)C2(C)O[C@@H]2/C=C/[C@@H](C)[C@H](O)C1` (some centres unmarked) [Substance 4], the GI50 in data set [1] is less than 0.03 ng/mL; in the data set on L-929 mouse fibroblast, 0.012 µg/mL (≈ 18.7 nM).
